According to US20260232767A1, “INTERLEUKIN-23 RECEPTOR ANTAGONIST PEPTIDES FOR USE IN THE TREATMENT OF PSORIASIS” (Janssen Pharmaceutica NV, priority 2023, published 2026):

Test system: subjects with moderate-to-severe plaque psoriasis
Assay: PASI response, Example 1 16-week dose-ranging study
Type: in vivo, human
Conditions: for PASI 100% Improvement, subjects / PASI ≥75% Improvement, subjects / PASI ≥90% Improvement, subjects: Combined doses
Procedure: The Psoriasis Area and Severity Index (PASI) is a system used for assessing and grading the severity of psoriatic lesions and their response to therapy. In the PASI system, the body is divided into four regions: the head, trunk, upper extremities, and lower extremities. Each of these areas is assessed and scored separately for erythema, induration, and scaling, which are each rated on a scale of 0 to 4 and extent of involvement on a scale of 0 to 6. The PASI produces a numeric score (a “PASI score”) that can range from 0 to 72. A higher score indicates more severe disease.
This was a randomized, double-blind, placebo-controlled, dose-ranging, parallel group, multicenter, interventional study in subjects with moderate-to-severe plaque psoriasis. A target of 240 subjects were enrolled in this study with 40 subjects planned per intervention group.
Clinician-reported outcomes including Psoriasis Area and Severity Index (PASI), Body Surface Area (BSA), Investigator's Global Assessment (IGA), Nail Psoriasis Area and Severity Index (NAPSI), Fingernail Physician's Global Assessment (f-PGA), Static Physician's Global Assessment of Genitalia (s-PGA-G), Physician's Global Assessment of Hands and/or Feet (hf-PGA), and Scalp Specific Investigator Global Assessment (ss-IGA) were obtained at Week 0, 8, and 16. PASI and IGA were also obtained at Weeks 1, 2, 4, and 12, and at Week 20, four weeks after the administration of the tablets has stopped.
The primary efficacy endpoint was the proportion of participants achieving a PASI 75 response at Week 16, defined as at least a 75% reduction from baseline in PASI total score.
For the primary analysis, composite strategy (non-responder imputation) was applied to address intercurrent event #1 (Discontinuation of study intervention due to lack of efficacy or due to an AE of worsening of psoriasis) and #2 (initiation of a protocol-prohibited medication or therapy that could improve psoriasis); and treatment policy strategy (observed data) was applied to intercurrent event #3 (Discontinuation of study intervention due to other reasons). Participants with missing data after application of ICEs are also considered as non-responders.
In addition to the response analysis, pairwise comparisons of each treatment group versus the placebo group were performed for the primary endpoint of PASI 75 at Week 16. Pairwise comparisons were not adjusted for multiplicity. The Cochran-Mantel-Haenszel chi-square statistic stratified by baseline weight category (≤90 kg, >90 kg) at a 2-sided significance level of 0.05 was used (Table 2).

[1] = Week 16, trough plasma conc Q2 to <Q3
[2] = Week 16, trough plasma conc ≥Q3
[3] = Week 16, 25 mg BID, intermediate plasma concentration quartile <Q1, N=1
[4] = Week 16, 25 mg BID, intermediate plasma concentration quartile Q1 to <Q2, N=1
[5] = Week 16, 25 mg BID, intermediate plasma concentration quartile Q2 to <Q3, N=1
[6] = Week 16, 25 mg BID, intermediate plasma concentration quartile ≥Q3, N=1
[7] = Week 16, 25 mg QD, intermediate plasma concentration quartile Q1 to <Q2, N=1
[8] = Week 16, 25 mg QD, intermediate plasma concentration quartile Q2 to <Q3, N=1
[9] = Week 16, 25 mg QD, intermediate plasma concentration quartile ≥Q3, N=1
[10] = Week 16, 50 mg QD, intermediate plasma concentration quartile <Q1, N=1
[11] = Week 16, 50 mg QD, intermediate plasma concentration quartile Q1 to <Q2, N=1
[12] = Week 16, 50 mg QD, intermediate plasma concentration quartile Q2 to <Q3, N=1
[13] = Week 16, 50 mg QD, intermediate plasma concentration quartile ≥Q3, N=2
[14] = Week 16, 100 mg BID, intermediate plasma concentration quartile <Q1, N=1
[15] = Week 16, 100 mg BID, intermediate plasma concentration quartile Q1 to <Q2, N=1
[16] = Week 16, 100 mg BID, intermediate plasma concentration quartile Q2 to <Q3, N=1
[17] = Week 16, 100 mg BID, intermediate plasma concentration quartile ≥Q3, N=2
[18] = Week 16, 100 mg QD, intermediate plasma concentration quartile <Q1, N=1
[19] = Week 16, 100 mg QD, intermediate plasma concentration quartile Q1 to <Q2, N=1
[20] = Week 16, 100 mg QD, intermediate plasma concentration quartile Q2 to <Q3, N=1
[21] = Week 16, 100 mg QD, intermediate plasma concentration quartile ≥Q3, N=1
[22] = Week 16, Combined regimens, intermediate plasma concentration quartile <Q1, N=5
[23] = Week 16, Combined regimens, intermediate plasma concentration quartile Q1 to <Q2, N=5
[24] = Week 16, Combined regimens, intermediate plasma concentration quartile Q2 to <Q3, N=5
[25] = Week 16, Combined regimens, intermediate plasma concentration quartile ≥Q3, N=6

## CC(=O)NCCCC[C@@H]1NC(=O)[C@H](Cc2c[nH]c3c(C)cccc23)NC(=O)[C@H]([C@@H](C)O)NC(=O)[C@H](CC(N)=O)NC(=O)[C@@H](NC(C)=O)C(C)(C)SSC(C)(C)[C@@H](C(=O)N[C@@H](Cc2ccc(OCCN)cc2)C(=O)N[C@@H](Cc2ccc3ccccc3c2)C(=O)NC2(C(=O)N[C@@H](CCC(=O)O)C(=O)N[C@@H](CC(N)=O)C(=O)N[C@@H](Cc3cccnc3)C(=O)N(C)CC(N)=O)CCOCC2)NC1=O [IL-23 receptor antagonist peptide, Ac-[Pen]*-N-T-[W(7-Me)]-[Lys(Ac)]-[Pen]*-Phe[4-(2-aminoethoxy)]-[2-Nal]-[THP]-E-N-[3-Pal]-Sarc-NH2 (*[Pen]-[Pen]* formdisulfidebond)]
[1]
  PASI 100% Improvement, subjects: 4 (15.4%)
  PASI ≥75% Improvement, subjects: 14 (53.8%)
  PASI ≥90% Improvement, subjects: 11 (42.3%)
[2]
  PASI 100% Improvement, subjects: 9 (33.3%)
  PASI ≥75% Improvement, subjects: 22 (81.5%)
  PASI ≥90% Improvement, subjects: 15 (55.6%)
[3]
  PASI 100% Improvement, subjects n (%): 0
  PASI ≥75% Improvement, subjects n (%): 0
  PASI ≥90% Improvement, subjects n (%): 0
[4]
  PASI 100% Improvement, subjects n (%): 0
  PASI ≥75% Improvement, subjects n (%): 1 (100.0%)
  PASI ≥90% Improvement, subjects n (%): 0
[5]
  PASI 100% Improvement, subjects n (%): 0
  PASI ≥75% Improvement, subjects n (%): 0
  PASI ≥90% Improvement, subjects n (%): 0
[6]
  PASI 100% Improvement, subjects n (%): 0
  PASI ≥75% Improvement, subjects n (%): 1 (100.0%)
  PASI ≥90% Improvement, subjects n (%): 1 (100.0%)
[7]
  PASI 100% Improvement, subjects n (%): 0
  PASI ≥75% Improvement, subjects n (%): 0
  PASI ≥90% Improvement, subjects n (%): 0
[8]
  PASI 100% Improvement, subjects n (%): 1 (100.0%)
  PASI ≥75% Improvement, subjects n (%): 1 (100.0%)
  PASI ≥90% Improvement, subjects n (%): 1 (100.0%)
[9]
  PASI 100% Improvement, subjects n (%): 0
  PASI ≥75% Improvement, subjects n (%): 0
  PASI ≥90% Improvement, subjects n (%): 0
[10]
  PASI 100% Improvement, subjects n (%): 0
  PASI ≥75% Improvement, subjects n (%): 1 (100.0%)
  PASI ≥90% Improvement, subjects n (%): 0
[11]
  PASI 100% Improvement, subjects n (%): 1 (100.0%)
  PASI ≥75% Improvement, subjects n (%): 1 (100.0%)
  PASI ≥90% Improvement, subjects n (%): 1 (100.0%)
[12]
  PASI 100% Improvement, subjects n (%): 1 (100.0%)
  PASI ≥75% Improvement, subjects n (%): 1 (100.0%)
  PASI ≥90% Improvement, subjects n (%): 1 (100.0%)
[13]
  PASI 100% Improvement, subjects n (%): 0
  PASI ≥75% Improvement, subjects n (%): 1 (50.0%)
  PASI ≥90% Improvement, subjects n (%): 1 (50.0%)
[14]
  PASI 100% Improvement, subjects n (%): 1 (100.0%)
  PASI ≥75% Improvement, subjects n (%): 1 (100.0%)
  PASI ≥90% Improvement, subjects n (%): 1 (100.0%)
[15]
  PASI 100% Improvement, subjects n (%): 1 (100.0%)
  PASI ≥75% Improvement, subjects n (%): 1 (100.0%)
  PASI ≥90% Improvement, subjects n (%): 1 (100.0%)
[16]
  PASI 100% Improvement, subjects n (%): 0
  PASI ≥75% Improvement, subjects n (%): 1 (100.0%)
  PASI ≥90% Improvement, subjects n (%): 0
[17]
  PASI 100% Improvement, subjects n (%): 2 (100.0%)
  PASI ≥75% Improvement, subjects n (%): 2 (100.0%)
  PASI ≥90% Improvement, subjects n (%): 2 (100.0%)
[18]
  PASI 100% Improvement, subjects n (%): 1 (100.0%)
  PASI ≥75% Improvement, subjects n (%): 1 (100.0%)
  PASI ≥90% Improvement, subjects n (%): 1 (100.0%)
[19]
  PASI 100% Improvement, subjects n (%): 1 (100.0%)
  PASI ≥75% Improvement, subjects n (%): 1 (100.0%)
  PASI ≥90% Improvement, subjects n (%): 1 (100.0%)
[20]
  PASI 100% Improvement, subjects n (%): 0
  PASI ≥75% Improvement, subjects n (%): 1 (100.0%)
  PASI ≥90% Improvement, subjects n (%): 0
[21]
  PASI 100% Improvement, subjects n (%): 0
  PASI ≥75% Improvement, subjects n (%): 1 (100.0%)
  PASI ≥90% Improvement, subjects n (%): 0)
[22]
  PASI 100% Improvement, subjects n (%): 3 (60.0%)
  PASI ≥75% Improvement, subjects n (%): 4 (80.0%)
  PASI ≥90% Improvement, subjects n (%): 3 (60.0%)
[23]
  PASI 100% Improvement, subjects n (%): 2 (40.0%)
  PASI ≥75% Improvement, subjects n (%): 3 (60.0%)
  PASI ≥90% Improvement, subjects n (%): 2 (40.0%)
[24]
  PASI 100% Improvement, subjects n (%): 1 (20.0%)
  PASI ≥75% Improvement, subjects n (%): 3 (60.0%)
  PASI ≥90% Improvement, subjects n (%): 1 (20.0%)
[25]
  PASI 100% Improvement, subjects n (%): 3 (50.0%)
  PASI ≥75% Improvement, subjects n (%): 6 (100.0%)
  PASI ≥90% Improvement, subjects n (%): 5 (83.3%)
Each dose group vs placebo, Week 16
  Improvement (reduction) in PASI total score from baseline: significantly greater improvement
